Reference: patent US20210113501A1, “METHOD OF ADMINISTERING BETA-HYDROXY-BETA-METHYLBUTYRATE (HMB)” (Metabolic Technologies, Inc., priority 2009, published 2021)

What was measured:
[1] = tested on: C2C12 myotubes; conditions: cited from earlier work
[2] = after HMB is fed; cited from earlier work
[3] = Study 2: plasma HMB and urinary HMB excretion over 24 h; format: in vivo, human
Source text: Human subjects. In study 1, four male and four female college-aged subjects were studied. In study 2, an additional four male and four female college-aged subjects were studied. The protocols for both studies were approved by the Iowa State University IRB and each subject gave informed consent to participate in the study. Due to the nature of the treatments, neither the subjects nor the researchers could be blinded.
Treatments. The same treatments were given to the subjects in both study groups. The three treatments were given in random order to each subject with at least a one week washout period between treatments. The treatments were supplied by Metabolic Technologies, Inc. (MTI, Ames, Iowa) and were prepared with food grade ingredients. One gram of CaHMB or the equivalent HMB in free acid in a gel form was administered to the subjects. The CaHMB capsules were obtained from a commercial supplement manufacturer (Optimum Nutrition, Aurora, Ill.) while the HMB-acid gel was prepared at MTI laboratories. Briefly, the HMB-acid was adjusted to a pH 4.5 with potassium carbonate (K2CO3) and flavors and sweeteners were then added. The 1.0 g CaHMB capsule was taken with 355 mL of water (approx. 12 oz.). The free acid gel dosage was 0.80 g and was equivalent to the free acid contained in the CaHMB in the capsule. The free acid gel treatments were either swallowed (FASW) or held sublingual for 15 seconds and then swallowed (FASL). FASW consisted of expelling the entire dose into the mouth in a 3 ml syringe, swallowing, and then following this with 355 mL of water. FASL subjects were instructed to place the entire dosage under the tongue and hold the dosage for 15 sec before swallowing. They then rinsed and followed the dose with 355 mL of water.
Study 2 design. Study 2 was conducted similar to study 1 with the following modifications. In study 2, plasma levels of HMB were measured for 1440 min (24 h) and total urine collection was also performed for measurement of urinary HMB excretion during this period. After the 180 min blood sample, the subjects were allowed to leave the laboratory and were instructed to return to the laboratory for additional blood samples at 360, 720, and 1440 min after the ingestion of the supplement. As in study 1, each subject took each of the treatments with at least a one week washout period between treatments. Samples were again stored frozen at −70° C. for analysis of plasma and urinary HMB concentrations. Pre-ingestion, 180 min and 1440 min blood samples were again assayed for the same measurements already for study 1. Subjects were provided with a standardized lunch after the 180 min blood sampling and instructed to eat this at approximately 240 min post ingestion. Following the 720 min blood sample, subjects were instructed to eat a normal evening meal before 10 pm. Subjects reported back to the laboratory the following morning for the fasted 1440 min blood sample. A urine collection container was provided and subjects collected all urine produced during the experimental 24 h experimental period. The urine was stored refrigerated when not being collected. Urine volumes were measured and samples of the total urine collection were taken and stored frozen at −70° C. until analyzed for HMB.
HMB analysis. Plasma and urine HMB were analyzed by gas chromatography/mass spectrometry (GC/MS) as previously described.(27)
Calculations and statistics. Areas under the curves were calculated for each subject using the trapezoidal method that sums the area above baseline.(51) Half-life of plasma HMB was calculated for study 2. The following equations were used:
k=(ln(Cpeak)−ln(Ctrough))/Tinterval
Peak plasma concentrations for each subject were used for Cpeak. […] Tpeak was the time at which Cpeak was measured and Tinterval is the time from Tpeak until the time at Ctrough (720 min). The extracellular fluid compartment was assumed to be 20% of body weight and calculated using equation 3 below(1). […]

[4] = tested on: muscle damage; assay: Serum CPK after an acute eccentric exercise bout; format: in vivo, human; conditions: pre- and post exercise dosing (Treatment 5)
Procedure: (§1) Subjects: We conducted a study at the Iowa State University Health and Human Performance Laboratory; this study was approved by the Iowa State University Institutional Review Board, and was registered at ClinicalTrials.gov (NCT01150526). We recruited 12 men and 13 women between the ages of 20 and 36 from the Iowa State University community and surrounding area.
(§2) Treatments: The experimental design is depicted in FIG. 8.
Five treatments were administered as follows: Treatment 1: Placebo. This group received a placebo capsule and a placebo syringe dosage at each dosage administration. Treatment 2: CaHMB pre-exercise. […]
Serum and Urine Samples: A fasting blood sample was taken from a superficial forearm vein each morning when the subjects reported to the laboratory for testing. […] Serum CPK was analyzed by a commercial laboratory (Quest Diagnostics, Madison N.J.). Urine 3-Methylhistidine (3MH) was analyzed by a previously published GC/MS method (9). Urinary creatinine was analyzed by colorimetric assay (Cayman Chemical Company, Ann Arbor, Mich.). The urinary 3MH data was normalized to urinary creatinine and expressed as 3MH:creatinine ratio, μmol:mg.
(§3) Statistics: Data were analyzed using the mixed model procedure in Statistical Analysis System for Windows (Release 9.1.3, SAS Institute, Cary, N.C.). […]

[5] = tested on: protein degradation in muscle; assay: Urinary 3-methylhistidine to creatinine ratio after an acute exercise bout; format: in vivo, human
Procedure: as §1, §2
Five treatments were administered as follows: Treatment 1: Placebo. This group received a placebo capsule and a placebo syringe dosage at each dosage administration. Treatment 2: CaHMB pre-exercise. This group received a CaHMB capsule and a placebo syringe dosage 30 min prior to the acute exercise bout. The remaining additional dosages during the study consisted of one placebo capsule and one placebo syringe dosage. Treatment 3: HMB-acid gel pre-exercise. This group received a placebo capsule and a syringe dosage of HMB-acid gel 30 min prior to the acute exercise bout. The remaining additional dosages during the study consisted of one placebo capsule and one placebo syringe dosage. Treatment 4: CaHMB pre- and post-exercise. This group received a CaHMB capsule and a placebo syringe dosage at all administration times during the study. Treatment 5: HMB-acid gel pre- and post-exercise. This group received a syringe dosage of HMB-acid gel and one placebo capsule at all administration times during the study.
To blind the treatments to both the researchers and subjects, each subject took a capsule and syringe dosage of supplement at each administration. The capsules contained either one gram of calcium lactate (Placebo) or one gram of calcium β-hydroxy-β-methylbutryate (CaHMB). The syringe dosages were formulated to be similar in taste and appearance and contained either 0.8 g of corn syrup (Placebo) or 0.8 g of β-hydroxy-β-methylbutryate free acid, the same amount of HMB as in the capsule dosage. The 3 daily doses provided the same total HMB dosage (2.4 g as calcium HMB in the capsules or 2.4 g as HMB free acid in the syringes).
Eccentric Exercise Bout: Subjects refrained from vigorous exercise for three days before reporting to the laboratory. All subjects were studied after an overnight fast. […] Subjects then consumed their assigned supplement and 30 minutes later the eccentric exercise session was performed. The exercise consisted of 50 maximal effort contractions of knee extensors while attempting to resist the Biodex lever arm as it moves the knee joint from full extension to 90 degrees flexion; this is similar to letting a heavy weight down slowly while in a seated position. Each contraction lasted about 2 seconds and 12 seconds were allowed between contractions. This protocol was performed on the right leg followed by the left leg. The subjects received 2 more daily dosages of treatment (placebo or HMB) with instructions to take the dosages at lunch and dinner. For the next 4 days the subjects returned to the laboratory fasted each morning, had blood taken and urine collected and then consumed the morning dosage of their supplement. The subjects were again given the 2 remaining daily supplement dosages with instructions to take them at lunch and dinner.
Serum and Urine Samples: A fasting blood sample was taken from a superficial forearm vein each morning when the subjects reported to the laboratory for testing. Additionally a clean catch urine sample was collected at this time. Serum CPK was analyzed by a commercial laboratory (Quest Diagnostics, Madison N.J.). Urine 3-Methylhistidine (3MH) was analyzed by a previously published GC/MS method (9). Urinary creatinine was analyzed by colorimetric assay (Cayman Chemical Company, Ann Arbor, Mich.). The urinary 3MH data was normalized to urinary creatinine and expressed as 3MH:creatinine ratio, μmol:mg.
as §3

CC(C)(O)CC(=O)O [HMB, β-Hydroxy-β-methylbutyrate]
phosphorylation of 4EBP1Thr65/70 [1]: +51%
phosphorylation of AKTSer473 [1]: +129%
phosphorylation of S6K1Thr389 [1]: +50%
AKT phosphorylation ([1]; incubation with rapamycin): +188%
loss of HMB to urine [2]: 20-50%

CC(C)(O)CC(=O)O [HMB-acid gel, β-hydroxy-β-methylbutryate free acid]
increase in HMB plasma clearance compared with CaHMB ([3]; Study 2): 25%
AUC greater than for CaHMB capsules ([3]; Study 2, over 24 hours, listed as free acid gel): +14.8%
estimated amount of HMB retained greater than CaHMB ([3]; based upon plasma clearance): 25%
peak plasma level earlier than with CaHMB ([3]; free acid versus CaHMB): ~90 min
plasma level relative to oral CaHMB ([3]; peak levels): ~2 fold
blunting of the exercise-induced increase in serum CPK ([4]; 24 h post exercise, P<0.03): up to 64%
blunting of the exercise-induced increase in serum CPK ([4]; 48 h post exercise, P<0.005): 86%
3MH:Cr ([5]; Baseline, dosed pre- and post exercise (Treatments 4, 5)): 0.225 ± 0.034 µmol/mg
3MH:Cr ([5]; Baseline, dosed pre-exercise only (Treatments 2, 3)): 0.173 ± 0.028 µmol/mg
3MH:Cr ([5]; at 24 h, dosed pre- and post exercise (Treatments 4, 5)): 0.213 ± 0.025 µmol/mg
3MH:Cr ([5]; at 24 h, dosed pre-exercise only (Treatments 2, 3)): 0.213 ± 0.037 µmol/mg
3MH:Cr ([5]; at 48 h, dosed pre- and post exercise (Treatments 4, 5)): 0.208 ± 0.012 µmol/mg
3MH:Cr ([5]; at 48 h, dosed pre-exercise only (Treatments 2, 3)): 0.190 ± 0.014 µmol/mg
3MH:Cr ([5]; at 72 h, dosed pre- and post exercise (Treatments 4, 5)): 0.175 ± 0.013 µmol/mg
3MH:Cr ([5]; at 72 h, dosed pre-exercise only (Treatments 2, 3)): 0.172 ± 0.013 µmol/mg
3MH:Cr ([5]; at 96 h, dosed pre- and post exercise (Treatments 4, 5)): 0.186 ± 0.043 µmol/mg
3MH:Cr ([5]; at 96 h, dosed pre-exercise only (Treatments 2, 3)): 0.202 ± 0.020 µmol/mg
protein degradation (3MH:Cr ratio), trend ([5]; pre- and post exercise dosing): no increase and even a decrease in protein degradation

CC(C)C[C@H](N)C(=O)O [leucine]
phosphorylation of S6K1Thr389 [1]: +17%
